Measurements taken from patent US5041535A, “Antileukemic and immunostimulant peptides” (Richter Gedeon Vegyeszeti Gyar Rt., priority 1986, dated 1991).
Square brackets hold non-standard residues; d marks the D form. Peptide text beside a SMILES is read from it. pGlu = O=C1CC[C@@H](C(=O)O)N1

Legend:
[1] = tested on: lymphocytes inhibited by Azathioprine; assay: E-rosetta test inhibited by Azathioprine; type: cell-based
Method: Inhibition of the proliferation of T-lymphocytes is tested in the E-rosetta test inhibited by Azathioprine [6-(1-methyl-4-nitroimidazole-5-yl-thio)-purine; Thymus 1, 195 (1980)].
To 200 μl of a healthy lymphocyte cell-suspension 500 μl/ml of Azathioprine and 200 μl of a separate dilution of the test compound in HBBS buffer (manufacturer: Flow, Great Britain) are added (concentration range: 10^-3 to […]). The mixture is incubated at a temperature of 37° C. in air containing 5% of carbon dioxide for 60 minutes, whereupon 200 μl of a 1% sheep erythrocyte suspension are added. The mixture thus-obtained is centrifuged at 1,000 r.p.m. for 5 minutes, the supernatant is removed by decanting and in the suspension the lymphocytes forming E-rosetta are counted under a microscope from at least 400 cells.
Under the effect of the peptides the E-rosetta forming activity of the lymphocytes inhibited by Azathioprine increases to different extent. […] It appears from the data of Table 2 that the tested peptides increase the E-rosetta forming capacity of inhibited lymphocytes, i.e. the peptides of the present invention show immunostimulant effect.

[2] = tested on: human K-562 erythroleukaemical cell-line; assay: Inhibition of the proliferation of tumor cells (K-562); type: cell-based; conditions: 72nd hour after treatment, percentage of the control
Method: In the test human K-562 erythroleukaemical cell-line is used (Karolinska Institute, Stockholm). Incubation is carried out in a nutrient medium designated RPMI-1640 (manufactured by Flow, Great Britain) comprising 10% of foetal calf serum, at a temperature of 37° C., in a humidified incubator containing 3% of carbon dioxide, in plastic dishes. Every point of measurement corresponds to the average of the data measured in three dishes, each. At the beginning of the test the dilution amounts to 0.5×10^5 cells/ml. Treatment is carried out 24 hours after dilution in a manner that the medium is not changed after the treatment. The cells are counted for 96 hours after dilution every 24th hour wit the aid of a Buerker chamber.
Under the effect of the peptide in the 24th hour after treatment the cell number stagnates and later it increases to a very small extent. […] The tumor-cell division inhibiting effect of the new peptides is summarized in Table 1 (72 hours after treatment). The rate of inhibition is expressed in the percentage of the control. It clearly appears from the data of the Table that the tested peptides inhibit the proliferation of human K-562 erythroleukaemic cells.

[3] = tested on: antibody production inhibited by cyclophosphamide; assay: Effect on antibody production in mice treated with cyclophosphamide; type: in vivo, CELP mice; conditions: cyclophosphamide 100 mg/kg i.p., titer on 6th day
Method: The effect on in vivo antibody production is tested on CELP mice treated with a 100 mg/kg body weight dose of cyclophosphamide {2-[bis-(2-chloroethyl)-amino]-tetrahydro-2H-1,3,2-oxaza -phosphorine-2-oxide; method: Z. Naturforsch. 35B, 1476 (1980)}. The mice are intraperitoneally immunized with a 1% sheep erythrocyte suspension previously washed three times with a 0.9% sodium chloride solution after 10 minutes of centrifuging at 2,500 r.p.m. Simultaneously with immunization carried out on the 0. day, the activity of the immune system is suppressed by means of treatment with a 100 mg/kg i.p. does of cyclophosphamide. On the 3rd day of the test the peptides are administered to the animals intraperitoneally in a dose of 5, 50 and occasionally 100 mg/kg respectively. On the 6th day of the test blood is taken retroorbitally from the mice and the anti-sheep erythrocyte titer of the serum is determined. […] The effect of the peptides is expressed as percentage of the relief of inhibition (G %).

[4] = tested on: inflammation induced by oxozolone; assay: Dermatitis test induced with oxazolone; type: in vivo, CFLP mice; conditions: 24th hour after treatment, ear weight increase
Method: In this test a modified pharmacological model of D. P. Evans et al. [Br. J. Pharmac. 43, 403-488 (1971)] is used.
The abdominal skin of male CFLP mice weighing 20-22 g is painted after the removal of the hair with 0.1 ml of a 2% solution of oxazolon (4-ethoxymethyl-2-phenyl-oxazoline, manufacturer Sigma) in sunflower oil. On the right ear of the test animals 7 days after sensitization (painting) inflammatory reaction is induced with the aid of 10 μl of a 2% acetonous oxazolone solution and simultaneously the animals are treated with a 1 or 2 mg/kg, respectively, i.p. does of the test compound. The test compound is dissolved in a physiological sodium chloride solution in such a concentration that the active ingredient content corresponding to the dose should be dissolved in a volume of 0.5 ml/10 g animal body weight.
The antiinflammatory effect is determined as follows: the animals are sacrificed in the 24th hour after treatment, whereupon the right and left ears are cut off. The percentual weight increase of the right ear related to the left ear is characteristic of the rate of inflammation induced during the test, while the percentual reduction of weight increase of the treated animals related to the untreated control is proportional to the antiinflammatory effect. In Table 4 the reduction of weight increase (antiinflammatory effect) achieved by the test compounds is disclosed, as the percentage of the untreated control.

[5] = peptide 5 mg/kg i.p. on 3rd day
[6] = peptide 50 mg/kg i.p. on 3rd day

Compound	Relief of inhibition (R %) of E-rosetta forming activity ([1]; peptide 10^-3 mole/l)	Relief of inhibition (R %) of E-rosetta forming activity ([1]; peptide 10^-5 mole/l)	Relief of inhibition (R %) of E-rosetta forming activity ([1]; peptide 10^-7 mole/l)	Relief of inhibition (R %) of E-rosetta forming activity ([1]; peptide 10^-9 mole/l)	Relief of inhibition (R %) of E-rosetta forming activity ([1]; peptide 10^-11 mole/l)	Inhibition of the proliferation of K-562 cells, inhibition (c %) ([2]; peptide 10/ug/ml)	Inhibition of the proliferation of K-562 cells, inhibition (c %) ([2]; peptide 1/ug/ml)	Restoration of primary immune answer, G % [3, 5]	Restoration of primary immune answer, G % [3, 6]	Inhibition of inflammation induced by oxozolone, inhibition as % of control ([4]; 1 mg/kg i.p.)	Restoration of primary immune answer, G % ([3]; peptide 100 mg/kg i.p. on 3rd day)	Inhibition of inflammation induced by oxozolone, inhibition as % of control ([4]; 2 mg/kg i.p.)
CC(C)[C@H](NC(=O)[C@H](CC(=O)O)NC(=O)[C@H](CCCCN)NC(=O)[C@@H](N)CCCN=C(N)N)C(=O)N[C@@H](Cc1ccc(O)cc1)C(=O)O [A, Arg--Lys--Asp--Val--Tyr, reference compound] (H-RKDVY-OH)	31.7%	29.3%	38.7%	30.0%	19.4%	32%	–	–	–	–	–	–
CC(C)[C@H](NC(=O)[C@H](CC(=O)O)NC(=O)[C@H](CCCCN)NC(=O)[C@@H](N)CCCNC(=N)N)C(=O)O [B, Arg--Lys--Asp--Val, reference compound] (H-RKDV-OH)	35.4%	35.4%	46.4%	32.5%	34.0%	4%	–	–	–	–	–	–
NCCCC[C@H](NC(=O)[C@H](CCC(=O)O)NC(=O)[C@@H]1CCC(=O)N1)C(N)=O [Peptide 2, Glp-Glu-Lys-NH2] ([pGlu]-Glu-Lys-NH2)	25.4%	20.2%	31.7%	24.3%	37.1%	55%	40%	23.0%	3.0%	–	–	–
N=C(N)NCCC[C@H](N)C(=O)N[C@@H](CCCCN)C(=O)N[C@@H](CCC(=O)O)C(N)=O [Peptide 3, Arg-Lys-Glu-NH2] (H-Arg-Lys-Glu-NH2)	24.3%	22.6%	15.6%	24.8%	17.0%	52%	40%	78.1%	47.6%	–	–	–
N=C(N)NCCC[C@H](N)C(=O)N[C@@H](CCCCN)C(=O)N[C@@H](CC(=O)O)C(N)=O [Peptide 4, Arg-Lys-Asp-NH2] (H-Arg-Lys-Asp-NH2)	29.7%	30.0%	18.7%	23.9%	18.5%	50%	25%	–	–	27%	28.5%	–
N=C(N)NCCC[C@H](N)C(=O)N[C@@H](CCCCN)C(=O)N[C@@H](CCC(=O)O)C(=O)O [Peptide 5, Arg-Lys-GIu-OH] (H-Arg-Lys-Glu-OH)	24.5%	24.6%	24.7%	24.0%	27.5%	48%	40%	61.5%	76.9%	–	–	–
CC(C)C[C@H](N)C(=O)N[C@H](C(=O)N[C@@H](C)C(=O)O)C(C)C [Peptide 7, Leu-VaI-AIa-OH] (H-Leu-Val-Ala-OH)	–	–	–	–	–	52%	38%	73.3%	100.0%	–	–	–
NCCCC[C@H](NC(=O)[C@H](CCCCN)NC(=O)[C@H](CCC(=O)O)NC(=O)[C@@H](N)CCCCN)C(=O)O [Peptide 10, Lys-GIu-Lys-Lys-OH] (H-KEKK-OH)	22.9%	16.3%	25.2%	21.1%	26.6%	40%	28%	15.5%	37.7%	22%	–	79%
CC(C)C[C@H](NC(=O)[C@@H](N)CCC(=O)O)C(=O)N[C@H](C(=O)N[C@@H](C)C(=O)O)C(C)C [Peptide 13, GIu-Leu-VaI-AIa-OH] (H-ELVA-OH)	–	–	–	–	–	65%	55%	20.9%	32.8%	40%	–	–
CC(C)C[C@H](N)C(=O)N1CCC[C@H]1C(=O)N[C@@H](C)C(=O)NCC(=O)O [Peptide 14, Leu-Pro AIa-Gly-OH] (H-LPAG-OH)	–	–	–	–	–	70%	45%	34.0%	56.8%	55%	–	–
